Data from patent US10202346B2, “Phenol derivatives and the pharmaceutical or cosmetic use thereof” (Galderma Research & Development, priority 2009, dated 2019).

Legend:
[1] = biological target: T1, receptors of AR type (Homo sapiens, UniProt P10275); assay: AR transactivation test in PALM (PC3 Androgen receptor Luciferase MMTV) cell line; format: cell-based; details: cross curves against reference agonist methyltrienolone, read-out: Kdapp (apparent dissociation constant)
T1 construct: expressed in transfected cells; host or cells: PALM cells (PC3 stably transfected with PMMTV-neo-Luc and pSG5puro-AR)
T1 sequence (P10275 1-920): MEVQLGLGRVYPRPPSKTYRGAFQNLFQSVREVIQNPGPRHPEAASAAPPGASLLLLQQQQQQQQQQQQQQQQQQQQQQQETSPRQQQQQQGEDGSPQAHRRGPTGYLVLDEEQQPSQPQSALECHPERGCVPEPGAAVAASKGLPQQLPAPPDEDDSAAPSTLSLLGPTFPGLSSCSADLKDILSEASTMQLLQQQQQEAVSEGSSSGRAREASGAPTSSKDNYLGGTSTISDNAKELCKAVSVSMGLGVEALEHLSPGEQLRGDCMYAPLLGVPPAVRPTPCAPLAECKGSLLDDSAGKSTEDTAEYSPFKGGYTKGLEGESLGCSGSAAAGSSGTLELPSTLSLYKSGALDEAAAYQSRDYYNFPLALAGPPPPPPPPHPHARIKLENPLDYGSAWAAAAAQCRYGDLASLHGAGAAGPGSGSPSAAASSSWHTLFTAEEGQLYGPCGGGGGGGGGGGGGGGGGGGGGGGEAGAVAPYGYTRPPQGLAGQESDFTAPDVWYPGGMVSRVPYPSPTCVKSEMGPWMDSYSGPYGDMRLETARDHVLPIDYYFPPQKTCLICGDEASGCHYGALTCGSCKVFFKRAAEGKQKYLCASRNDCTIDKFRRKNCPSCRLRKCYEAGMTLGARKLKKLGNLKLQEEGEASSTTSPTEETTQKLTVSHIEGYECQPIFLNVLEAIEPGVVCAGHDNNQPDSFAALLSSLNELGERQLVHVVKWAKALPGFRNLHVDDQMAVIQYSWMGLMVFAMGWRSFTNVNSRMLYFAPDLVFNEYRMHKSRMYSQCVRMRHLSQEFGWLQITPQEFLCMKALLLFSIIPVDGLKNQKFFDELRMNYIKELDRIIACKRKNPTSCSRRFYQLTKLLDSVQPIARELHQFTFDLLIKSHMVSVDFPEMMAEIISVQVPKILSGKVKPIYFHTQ
Description: The compounds according to the invention show inhibitory properties on receptors of AR type. This AR receptor-inhibiting activity is measured in a transactivation test through the KdR (resting), KdA (active) and Kdapp (apparent) dissociation constants according to the method set out in J. Molecular Biology (1965), 12(1), 88-118, Monod J. of et al.
The transactivation test is carried out in the PALM (PC3 Androgen receptor Luciferase MMTV) cell line which is a stable transfectant containing the PMMTV-neo-Luc (reporter gene) and pSG5puro-AR plasmids.
In this study, the affinity of each product for the 2 receptor states (KdR and KdA) is determined, as is an apparent Kd (KdApp). This constant is a result of the 2 Kd, but also depends on the initial equilibrium of the receptor between the active state and the resting state (L0) and on its expression level. It is determined by means of the following formula: 1/KdApp=(L0/(1+L0))×(1/KdR)+(1/(1+L0))×(1/KdA)
To determine these constants, “cross curves” of the test product against a reference agonist, methyltrienolone, are produced in 96-well plates. The test product is used at 10 concentrations and the reference agonist at 7 concentrations, […]

Row | Kd [1] [nM] | melting point [°C] | Compound
1 | 20 | 137 | COc1cc(NCc2ccccc2O)cc(Br)n1 [Example 1, 2-[(2-Bromo-6-methoxypyridin-4-ylamino)methyl]phenol]
2 | 4 |  | Oc1ccccc1CNc1ccnc(Cl)c1 [Example 2, 2-[(2-Chloropyridin-4-ylamino)methyl]phenol]
3 | 20 |  | Oc1ccc(F)cc1CNc1ccnc(Br)c1 [Example 4, 2-[(2-Bromopyridin-4-ylamino)methyl]-4-fluorophenol]
4 | 50 |  | COc1cc(NCc2ccccc2O)ccn1 [Example 5, 2-[(2-Methoxypyridin-4-ylamino)methyl]phenol]
